Data from patent US20100022766A1, “BIOSYNTHETIC GENE CLUSTER FOR THE PRODUCTION OF A COMPLEX POLYKETIDE” (WYETH, priority 2008, published 2010).

Legend:
cortical neuron cultures = assay: cortical neuron assay, neurite outgrowth (Cellomics ArrayScan ENO); assay type: cell-based; details: Rattus norvegicus, Cortical neurone, 72 hours treatment
Protocol: Dissociated cortical neuron cultures were prepared as previously described [Pong et al, “Attenuation of staurosporine-induced apoptosis, oxidative stress, and mitochondrial dysfunction by synthetic superoxide dismutase and catalase mimetics, in cultured cortical neurons”, Exp Neurol. 2001 September; 171(1):84-97.] Briefly, embryonic day 15 rat fetuses were collected and dissected in ice-cold PBS. Dissected cortices were pooled together and transferred to an enzymatic dissociation medium containing papain. After 30 min, the tissue was mechanically triturated with a fire-polished glass Pasteur pipette. Single-cell suspensions in complete media were seeded on poly-L-ornithine and laminin coated 96-well plates. Twenty-four hours later, cultures were treated with various concentrations of compound of formula III for 72 hours. The cultures were then fixed and stained with an anti-tubulin antibody (TUJ-1) and a fluorescent-tagged secondary antibody. Neurite outgrowth was determined by using the Enhanced Neurite Outgrowth (ENO) algorithm with the Cellomics ArrayScan and expressed as average neurite length or neurite length per cell

[1] = tested on: cultured cortical neurons; assay: neurofilament content in cultured cortical neurons; assay type: cell-based, rat; details: 72 hours
Protocol: Dissociated cortical neuron cultures were prepared as previously described [Pong et al., Exp Neurol. 2001 September; 171(1):84-97 (2001)]. Briefly, embryonic day 15 rat fetuses were collected and dissected in ice-cold PBS. Dissected cortices were pooled together and transferred to an enzymatic dissociation medium containing papain. After 30 min, the tissue was mechanically triturated with a fire-polished glass Pasteur pipette. Single-cell suspensions in complete media were seeded on poly-L-ornithine and laminin coated 96-well plates. 24 hours later, cultures were treated with various concentrations of compound of formula (III) for 72 hours. The cultures were then fixed and stained with a neurofilament primary antibody and a peroxidase-tagged secondary antibody. A peroxidase substrate (K-Blue Max) was added and the calorimetric change was measure on a calorimetric plate reader.

[2] = tested on: cultured dorsal root ganglia; assay: total neurite length in cultured dorsal root ganglia; assay type: cell-based, rat; details: 72 hours
Protocol: Dissociated dorsal root ganglia cultures were prepared as previously described [A. Wood et al., “Stimulation of neurite outgrowth by immunophilin ligands: quantitative analysis by Cellomics Array scan” Society for Neuroscience (2004), abstract 104.31. Briefly, postnatal day 3-5 rat pups were euthanized. The spinal columns were removed and individual dorsal root ganglia (DRG) were dissected out. Dissected DRG were pooled together and transferred to an enzymatic dissociation medium containing papain. After 60 minutes, the tissue was mechanically triturated with a fire-polished glass Pasteur pipette. Single-cell suspensions in complete media were seeded on poly-L-ornithine and laminin coated 96-well plates. After 24 hours, cultures were treated with various concentrations of the compound of formula III for 72 hours. The cultures were then fixed and stained with an anti-tubulin primary antibody (TUJ-1) and a fluorescent-tagged secondary antibody. Neurite outgrowth was determined by using the Enhanced Neurite Outgrowth (ENO) algorithm with the Cellomics ArrayScan and expressed as total neurite length per cell.

[3] = tested on: cultured cortical neurons; assay: total neurite length in cultured cortical neurons; assay type: cell-based, rat; details: 72 hours
Protocol: Dissociated cortical neuron cultures were prepared as previously described (Pong et al., cited above, 2001). Briefly, embryonic day 15 rat fetuses were collected and dissected in ice-cold PBS. Dissected cortices were pooled together and transferred to an enzymatic dissociation medium containing papain. After 30 minutes, the tissue was mechanically triturated with a fire-polished glass Pasteur pipette. Single-cell suspensions in complete media were seeded on poly-L-ornithine and laminin coated 96-well plates. After 24 hours, cultures were treated with various concentrations of the compound of formula III for 72 hours. The cultures were then fixed and stained with an anti-tubulin primary antibody (TU-1) and a fluorescent-tagged secondary antibody. Neurite outgrowth was determined by using the Enhanced Neurite Outgrowth (ENO) algorithm with the Cellomics ArrayScan and expressed as total neurite length per cell.

FKBP12 = FKBP12 (Homo sapiens, UniProt P62942); details: cited from earlier work
[4] = cited from earlier work
[5] = tested on: mesencephalic dopanergic neuron cultures; assay: high-affinity 3H-DA uptake in ventral mesencephalic cultures, with or without MPP+ exposure; assay type: cell-based, rat; details: for protection against MPP toxicity: pre-treatment 1 hr or 24 hr, then MPP+ for 1 hr, recovery 24 hr or 48 hr, 3H-DA uptake readout
Protocol: Ventral mesencephalic cultures were prepared from E15 rat embryos and maintained for […] before experimentation according to the method of Pong et al., J Neurochem.
Cultures were then exposed to 10 μM 1-methyl-4-phenylpyridinium (MPP+) for 1 hr, in the presence of drug. After the 1 hr exposure, media was changed 3×, and fresh drug was added for an additional 24 hr or 48 hr.

Sequence of FKBP12 (P62942 whole entry, species assumed): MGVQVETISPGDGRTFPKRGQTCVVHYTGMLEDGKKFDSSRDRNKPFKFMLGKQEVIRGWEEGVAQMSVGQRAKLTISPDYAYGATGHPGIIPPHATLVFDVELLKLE

## CC/C1=C\CC(/C(C)=C/C(C)C(C)O)OC(=O)C2CCCCN2C(=O)CC2(O)OC(CCC2C)CC(O)C(C)C(O)CC(O)CC(O)/C(C)=C/C(C)CC(C)C1O (stereo not drawn) [Example 9, C9-deoxomeridamycin]
Cortical neuron cultures
  EC50: < 1000 nM
[1]; 10 nM
  NEUROFILAMENT CONTENT (FOLD-INCREASE ABOVE CONTROL): 1.9 FOLD-INCREASE ABOVE CONTROL
[1]; 100 nM
  NEUROFILAMENT CONTENT (FOLD-INCREASE ABOVE CONTROL): 2.19 FOLD-INCREASE ABOVE CONTROL
[1]; 1 μM
  NEUROFILAMENT CONTENT (FOLD-INCREASE ABOVE CONTROL): 2.24 FOLD-INCREASE ABOVE CONTROL
[1]; 10 μM
  NEUROFILAMENT CONTENT (FOLD-INCREASE ABOVE CONTROL): 2.29 FOLD-INCREASE ABOVE CONTROL
[2]; 10 nM
  TOTAL NEURITE LENGTH (% ABOVE CONTROL): 17%
[2]; 100 nM
  TOTAL NEURITE LENGTH (% ABOVE CONTROL): 24%
[2]; 1 μM
  TOTAL NEURITE LENGTH (% ABOVE CONTROL): 36%
[2]; 10 μM
  TOTAL NEURITE LENGTH (% ABOVE CONTROL): 64%
[3]; 10 nM
  TOTAL NEURITE LENGTH (% ABOVE CONTROL): 10%
[3]; 100 nM
  TOTAL NEURITE LENGTH (% ABOVE CONTROL): 54%
[3]; 1 μM
  TOTAL NEURITE LENGTH (% ABOVE CONTROL): 86%
[3]; 10 μM
  TOTAL NEURITE LENGTH (% ABOVE CONTROL): 121%

## CC/C1=C\CC(/C(C)=C/C(C)C(C)O)OC(=O)C2CCCCN2C(=O)C(=O)C2(O)OC(CCC2C)CC(O)C(C)C(O)CC(O)CC(O)/C(C)=C/C(C)CC(C)C1O (stereo not drawn) [meridamycin, Meridamycin]
FKBP12
  FKBP12 binding activity: strong FKBP12 binding activity
[4]
  neuroprotective activity in vitro: significant neuroprotective activity in vitro
[5]
  protection against MPP toxicity: partial, but significant protection

B1: GDNF: glial-derived neurotrophic factor, used as control (protein, UniProt P39905 78-211, looked up)
Glial cell line-derived …: SPDKQMAVLPRRERNRQAAAANPENSRGKGRRGQRGKNRGCVLTAIHLNVTDLGLGYETKEELIFRYCSGSCDAAETTYDKILKNLSRNRRLVSDKVGQACCRPIAFDDDLSFLDDNLVYHILRKHSAKRCGCI
[5]; normal cultures, no MPP+
  DA uptake: enhanced DA uptake
[5]
  protection against MPP toxicity: partial, but significant protection
